From article PMC5797143, “Epigenetic modulation of inflammation and synaptic plasticity promotes resilience against stress in mice” (Nature Communications, 2018)

Assays:
[1] = in vivo, po; cited from earlier work
[2] = system: CpG-rich sequences of mouse IL-6 promoter and introns 1, 3; test: CpG-free luciferase reporter with IL-6 promoter/intron CpG-rich segments in N2a cells; type: cell-based; conditions: 24 h
Description: To investigate how DHCA may attenuate IL-6 generation, we tested the effect of DHCA on Toll-like receptor-4 mediated signaling pathways. PBMCs were pretreated with DHCA and stimulated with LPS using the same protocol as during screening. Samples were taken at 0, 30 min, 60 min, 6 h and 16 h following LPS stimulation and cell lysates were subjected to a multiplex ELISA assay. […] Based on evidence that DNA methylation at a single CpG in the human IL-6 promoter region effectively alters IL-6 expression, we next tested whether DHCA can modulate IL-6 gene expression through methylation mechanisms. We treated PBMC cells with DHCA and measured the expression of enzymes essential for DNA methylation/demethylation. […] To investigate how methylation influences IL-6 gene expression, we employed the CpG-free luciferase reporter system. We cloned a ~280 bp CpG rich DNA segment from the mouse IL-6 promoter into a promoterless CpG-free reporter construct and transfected into N2a cells. We found the CpG-rich IL-6 promoter segment presented no inherent promoter activity as reflected by no differences in luciferase activity compared to the control construct (Fig. 2f). […] We then cloned CpG rich DNA segments from IL-6 introns 1, 3 or 4 into the CpG-free luciferase reporter construct with a minimal EF1 promoter and no enhancer activity. […] In contrast, the CpG-rich region of IL-6 intron 4 presented no observable enhancer activity (Fig. 2g). […] To test whether DHCA may influence the expression of other pro-inflammatory factors, we measured the level of secreted cytokines following LPS stimulation (Supplementary Fig. 3).
CpG-rich motif from mouse IL-6 promoter and intron 1, intron 3, and intron 4 were cloned into basic (no promoter or enhancer) or promoter (minimal EF1 promoter with no enhancer) pCpG-free Lucia plasmid (InvivoGen) using In-Fusion Cloning Kit (Clontech Laboratories). Plasmids were prepared in E. coli GT115 cells and expressed in N2A neuoblastoma cells using lipofectamine 2000 (ThermoFisher) according to manufacturer’s instruction. Following overnight recovery, cells were subjected to 5 µM of methylation inhibitor 5-Aza-2′-deoxycytidine (AZA-DC) or DHCA treatment. Twenty-four hours later, 10 µl of medium was incubated with 50 µl of QUANTI-Luc luciferase substrate for luciferase activity assessment.

[3] = system: stress susceptible C57BL/6 mice after RSDS; test: RSDS, therapeutic treatment of susceptible mice; type: in vivo, mouse; conditions: Imipramine 20 mg/kg-BW/day i.p. for 35 days
Description: To test the therapeutic efficacy of DHCA/Mal-gluc, we induced depression-like behavior using two different methods. In the first set of studies, mice were subjected to RSDS followed by SI test. All susceptible mice with SI ratio <0.8 were randomly grouped into vehicle or DHCA/Mal-gluc group. Following two weeks treatment, all mice were subjected to SI re-testing without further stress exposure (Fig. 5a). […] In a parallel study to compare the treatment efficacy with the tricylic antidepressant Imipramine, we treated the susceptible mice with Imipramine through i.p. injection for 35 days. […] We then examined the effect of DHCA/Mal-gluc on RSDS-induced anhedonia and an ethologically relevant self-neglect phenotype. […] We next measured the levels of IL-6 in plasma and Rac1 in the NAc after behavioral testing. […]
All social interaction (SI) tests were performed under red-light conditions. […] Their movements were automatically monitored and recorded (Ethovision 3.0; Noldus Information Technology) for 2.5 min in the absence (target absent phase) of a novel CD-1 mouse and followed by 2.5 min exploratory behavior in the presence of a caged CD-1 mouse (target present phase). SI behavior was then calculated as a ratio of the time spent in the interaction zone with the target present divided by the time spent in the interaction zone with the target absent. […]

quercetin-glucuroide
Detection in Brain [1]: +
Detection in Plasma [1]: +

Nc1ncn([C@H]2C[C@H](O)[C@@H](CO)O2)c(=O)n1 [AZA-DC, 5-aza-2′-deoxycytidine]
luciferase expression, CpG-rich IL-6 promoter segment ([2]; 5 µM): no effect
luciferase (enhancer) activity, IL-6 intron 1 [2]: partially reduced
luciferase (enhancer) activity, IL-6 intron 3 [2]: totally abolished

resveratrol-glucuronide
Detection in Brain [1]: +
Detection in Plasma [1]: +

OMe-resveratrol-glucuronide
Detection in Brain [1]: +
Detection in Plasma [1]: +

CN(C)CCCN1c2ccccc2CCc2ccccc21 [Imipramine]
susceptible mice with resilient phenotype upon retesting [3]: about 50%

OMe-quercetin-glucuronide
Detection in Brain [1]: +
Detection in Plasma [1]: +
